Results from US5271944A, “Pharmacologically enhanced formulations” (Biofor, Ltd., priority 1991, dated 1993).

Assays:
acetylcholine writhing = test: mouse acetylcholine writhing test (analgesic activity); assay type: in vivo, mouse (CD-1); conditions: 1 mg/kg oral, 4 hours before intraperitoneal acetylcholine; writhes counted for 10 minutes
Procedure: This study was performed to evaluate and compare the analgesic effectiveness of the micronized and pulverized samples described in Example 1, Step A and Example 1, Step B. Analgesic activity was evaluated via the mouse acetylcholine writhing test using a modification of the procedure described by Collier et al in Nature (New Biol.), Volume 204: page 1316 (1964) and the British Journal of Pharmacology, Chemotherapy, Volume 32: page 295 (1968).
The test groups consisted of ten mile CD-1 mice (Charles River Laboratories) weighing 18-28 grams each. Test compounds suspended in 0.25% methylcellulose solution were administered orally by gavage and four hours later the mice were injected intraperitoneally with acetylcholine (0.55 mg/ml in 0.25% methyl cellulose). The number of writhes in each group of mice were counted for 10 minutes immediately following the injection of acetylcholine and percent inhibition was calculated as follows: […]

adjuvant polyarthritis = test: Adjuvant polyarthritis in polyarthritic injected rats (hind feet weight); assay type: in vivo, rat (male Lewis); conditions: for ED50: oral once daily for 5 days (Days 9-13), hind feet weighed Day 15, 21600 min
Procedure: The object of this study was to compare the anti-inflammatory activity of the micronized and unmicronized samples when administered orally to polyarthritic injected rats.
This anti-inflammatory study was conducted according to the method described by Chang, Y., Pearson, C.M. and Abe, C. in Arthritis and Rheumatism, Volume 23: pp. 62-71 (1980).
Male Lewis rats weighing 200 to 220 grams were divided into groups of 5 and housed in hanging cages with food and water ad libitum. On Day Zero they were injected with 7.5 mg of N,N-dioctadecyl-N',N'bis(2-hydroxyethyl)propane diamine suspended in mineral oil subcutaneously at the base of the tail. On Day 9 the animals were weighed and compound administration was begun. The micronized and unmicronized samples described in Example 1, Steps A and B, were suspended in solution using a tissue homogenizer in 1% carboxy methyl cellulose. These compounds were administered orally once daily for 5 days (Days 9-13) with no dosing on day 14. On Day 15, the hind feet were removed just above the ankle joint and weighed, and percent difference from the diseased control was calculated.

hind paw edema = test: Anti-inflammatory activity: hind paw edema in adjuvant (Mycobacterium butyricum) arthritis rats; assay type: in vivo, rat (female Lewis); conditions: 1 mg/kg per day, dosed once daily for 4 days, paw volumes measured on fifth day
Procedure: The effectiveness of the micronized sample as an anti-inflammatory agent and its comparison to the pulverized form was evaluated.
This study is a modification of the method described by Wong, et al in the Journal of Pharmacology and Experimental Therapeutics, Vol. 185: No. 1, pages 127-138 (1973).
The left and right rear paws of female Lewis rats (Charles River Laboratories) weighing 160-180 grams each were measured by mercury displacement prior to injection (Day Zero).
Adjuvant arthritis was induced in this rat colony by subcutaneous injection of Mycobacterium butyricum (0.75 mg in 0.1 ml light mineral oil, Fisher) using an automated Cornwall syringe. On days 11-15 post-adjuvant, the injected animals with 0.25 to 0.76 ml paw edema were selected and distributed evenly, according to edema size, into control and experimental groups of ten rats each. Vehicle control and drug treatments were assigned to the groups at random. […] All animals were dosed once daily for 4 days and on the fifth day both hind paw volumes were again measured using mercury displacement.
The hind paw edema was determined for each rat by subtracting the hind paw volume measured on Day Zero from the hind paw volume measured on the fifth day of the study. Group means were determined and the drug effect was calculated as percent inhibition of the hind paw edema according to the following equation: […]

In the case of `CN1OCCC(=Cc2cc(C(C)(C)C)c(O)c(C(C)(C)C)c2)C1=O` [Example 1, Step A, dihydro-4-(3,5-di-tert-butyl-4-hydroxy-benzylidene)-2-methyl-2H-1,2-oxazin-3(4H)-one], the “% Inhibition (acetylcholine writhing assay)” value (acetylcholine writhing) is reported as 100%, the ED50 (adjuvant polyarthritis) is reported as 2.8 mg/kg and the “increase in potency of micronized compared to unmicronized sample” value (adjuvant polyarthritis; ratio of ED50, adjuvant polyarthritis) is reported as “almost six fold increase in potency”. For the same molecule, the “% Inhibition (hind paw edema)” value (hind paw edema; listed as Example 1, Step B micronized) was 35%.

For `CN1OCCC(=Cc2cc(C(C)(C)C)c(O)c(C(C)(C)C)c2)C1=O` [Example 1, Step B, dihydro-4-(3,5-di-tert-butyl-4-hydroxy-benzylidene)-2-methyl-2H-1,2-oxazin-3(4H)-one], the “% Inhibition (acetylcholine writhing assay)” value (acetylcholine writhing) was 63%, the ED50 (adjuvant polyarthritis) was 16.2 mg/kg and the “% Inhibition (hind paw edema)” value (hind paw edema) was 20%.

For `CN1OCCC(=Cc2cc(C(C)(C)C)c(O)c(C(C)(C)C)c2)C1=O` [active ingredient, dihydro-4-(3,5-di-tert-butyl-4-hydroxybenzylidene)-2-methyl-2H-1,2-oxazin-3(4H)-one], the “degree of increase in anti-inflammatory effectiveness attributable to micronization vs unmicronized product” value (adjuvant polyarthritis; general statement, test not named) was “at least six fold”.
